Read-outs that look alike come from different tables or passages of the source.
Columns and labels:
[1] = system: hiPSC-CMs; experiment: Intracellular prodrug, cleavage intermediate metabolite and NTP metabolite concentrations in hiPSC-CMs; assay type: in vitro ADME, human; details: hiPSC-CMs; for Intracellular Concentration, Cleavage Intermediate Metabolite / Intracellular Concentration, NTP Metabolite: BLOQ = below 17 pmol/million cells
Protocol: Approximately 18 h before dosing, iCell hiPSC-CMs were switched to iCell cardiomyocyte maintenance media free of Penicillin/Streptomycin. […] […] After the corresponding treatment, cells were washed 2x with 200 μL of ice-cold magnesium- and calcium-free PBS buffer. Cells were then lysed in 100 μL of ice-cold lysis solution (70/30 methanol/water containing 20 mM EDTA and 20 mM EGTA, pH 8) by pipetting up and down 5 times. Plates were sealed and transferred on dry ice for determination of prodrug, cleavage intermediate metabolite, and NTP metabolite concentrations. Intracellular prodrug concentrations were measured using a reversed phase HPLC- high resolution mass spectrometry method. A dimethylhexylamine based ion-pairing HPLC-MS/MS method was used to measure intracellular cleavage intermediate metabolite and NTP metabolite concentrations. Intracellular concentrations (pmol/million cells) of prodrug, cleavage intermediate metabolite, and NTP metabolite were quantitated against calibration standards of the same analytes prepared from control iCell hiPSC-CM lysates.
For prodrug analyses, full scan high resolution mass spectrometry data was collected using an Exactive™ Orbitrap mass spectrometer with an electrospray source operated in the positive ion mode. Prodrug chromatograms were extracted from full scan high resolution mass spectrometry data for the masses indicated in Supplementary Table 5. Absence of endogenous interference(s) was verified by extracting the same ion from full scan high resolution mass spectrometry chromatograms of unspiked control cell lysates. For the cleavage intermediate metabolite and NTP metabolite an electrospray MS/MS method run on a SCIEX API 4000 mass spectrometer with turboV ionspray source was used in negative ion mode monitoring the transitions indicated in Supplementary Table 5. Absence of endogenous interference(s) was verified by monitoring of the same MRM transitions for unspiked control cell lysates. Measured intracellular prodrug, cleavage intermediate metabolite, and NTP metabolite concentrations (in pmol/million cells units) were tabulated (Table 2).

[2] = system: hiPSC-CM syncytia; experiment: Spontaneous FP rate and IMP amplitude/beating rate in hiPSC-CM syncytia (RTCA CardioECR / RTCA Cardio); assay type: cell-based, human; details: prodrug co-administered with 0.3 μM amiodarone, steady state (4 h), spontaneously beating hiPSC-CM syncytia
Protocol: hiPSC-CMs (iCells®) from Cellular Dynamics International (CDI, Madison, WI, USA) were seeded onto 48-well CardioECR or 96-well Cardio E-Plates® (ACEA Biosciences Inc., San Diego, CA, USA) coated with 10 μg/mL fibronectin (Sigma Aldrich, Catalog# F1141) at 30,000 cells/well, following manufacturer’s recommendations. Cells were maintained in culture (37 °C, 5% CO2) for a period of 14 days with iCell Maintenance® media (CDI, Madison, WI, USA) exchanged every 2–3 days. Compound addition was only performed on or after Day 14 following cell seeding.
Compound stock solutions were prepared in 100% DMSO or H2O. On the day of compound addition, the media was exchanged with fresh iCell Maintenance® media and allowed to equilibrate for at least 3 h in the incubator. The plates were read on an xCELLigence® RTCA CardioECR or RTCA Cardio (ACEA Biosciences Inc., San Diego, CA, USA). Control pre-reads to establish a baseline were recorded for at least 45 minutes (4 reads at 15-min intervals) prior to compound addition. The compound stock solutions were diluted into iCell Maintenance® media and quickly added to the plate. The plate was continuously monitored for at least 18 h following compound addition. IMP data were sampled at 12 ms (83 Hz), while FP rate data were collected at 0.1 ms (10 KHz). Attachment, growth and viability of syncytia were monitored by means of the baseline IMP signal, as previously described. IMP and FP signals were only interpreted if the baseline IMP was maintained throughout the measurement period (usually ≤18 hrs) at ≥70% of the value before test compound application (pre-read value).

[3] = biological target: T1, Cav1.2 (Homo sapiens, UniProt Q13936); experiment: Ca2+ influx in Cav1.2/HEK-293 cells (FDSS); assay type: cell-based; details: for IC50: Cav1.2/HEK-293, compound alone
T1 construct: expressed in transfected cells
Protocol: The HEK-293 cell line overexpressing Cav1.2 channel proteins was maintained in-house. HEK-293 cells transiently overexpressing Cav1.3 channel proteins were purchased from ChanTest (Charles River Laboratories, Cleveland, OH, USA). The assay was conducted as previously described. Briefly, on experiment day, cells were incubated with Codex ACTOne® dye (Codex Biosolutions, Inc., Gaithersburg, MD, USA) formulated in PPB buffer containing 25 mM potassium (in mM: 127 NaCl, 25 KCl 0.005 CaCl2, 1.7 MgCl2, 10 HEPES, pH = 7.2 with NaOH), or PPB buffer containing 1 mM potassium (in mM: 151 NaCl, 1 KCl 0.005 CaCl2, 1.7 MgCl2, 10 HEPES, pH = 7.2 with NaOH) for 1 h at room temperature, then test compounds were added for another 30-minute incubation at room temperature with a final volume of 100 μL. The Hamamatsu FDSS/μCell imaging platform simultaneously collected Ca^2+ signals from 96-well plates, at a sampling rate of 16 Hz for 20 seconds as baseline, then a trigger buffer (containing in mM: 119 NaCl, 25 KCl, 4 CaCl2, 1.7 MgCl2, 10 HEPES, pH = 7.2 with NaOH) was added using the dispenser of the FDSS/μCell instrument to generate Ca^2+ transient for 40 seconds. The peak amplitude within the latter 40 seconds minus the average amplitude of the first 20 seconds is the final Ca^2+ transient response of each well. […] Relative response of each well was calculated as follows: […]

[4] = 10 μM prodrug + 0.3 μM amiodarone, 4 Hours
[5] = 10 μM prodrug + 0.3 μM amiodarone, 30 Min
[6] = read-out: IC50, Ca2+ influx inhibition

T1 sequence (Q13936 whole entry): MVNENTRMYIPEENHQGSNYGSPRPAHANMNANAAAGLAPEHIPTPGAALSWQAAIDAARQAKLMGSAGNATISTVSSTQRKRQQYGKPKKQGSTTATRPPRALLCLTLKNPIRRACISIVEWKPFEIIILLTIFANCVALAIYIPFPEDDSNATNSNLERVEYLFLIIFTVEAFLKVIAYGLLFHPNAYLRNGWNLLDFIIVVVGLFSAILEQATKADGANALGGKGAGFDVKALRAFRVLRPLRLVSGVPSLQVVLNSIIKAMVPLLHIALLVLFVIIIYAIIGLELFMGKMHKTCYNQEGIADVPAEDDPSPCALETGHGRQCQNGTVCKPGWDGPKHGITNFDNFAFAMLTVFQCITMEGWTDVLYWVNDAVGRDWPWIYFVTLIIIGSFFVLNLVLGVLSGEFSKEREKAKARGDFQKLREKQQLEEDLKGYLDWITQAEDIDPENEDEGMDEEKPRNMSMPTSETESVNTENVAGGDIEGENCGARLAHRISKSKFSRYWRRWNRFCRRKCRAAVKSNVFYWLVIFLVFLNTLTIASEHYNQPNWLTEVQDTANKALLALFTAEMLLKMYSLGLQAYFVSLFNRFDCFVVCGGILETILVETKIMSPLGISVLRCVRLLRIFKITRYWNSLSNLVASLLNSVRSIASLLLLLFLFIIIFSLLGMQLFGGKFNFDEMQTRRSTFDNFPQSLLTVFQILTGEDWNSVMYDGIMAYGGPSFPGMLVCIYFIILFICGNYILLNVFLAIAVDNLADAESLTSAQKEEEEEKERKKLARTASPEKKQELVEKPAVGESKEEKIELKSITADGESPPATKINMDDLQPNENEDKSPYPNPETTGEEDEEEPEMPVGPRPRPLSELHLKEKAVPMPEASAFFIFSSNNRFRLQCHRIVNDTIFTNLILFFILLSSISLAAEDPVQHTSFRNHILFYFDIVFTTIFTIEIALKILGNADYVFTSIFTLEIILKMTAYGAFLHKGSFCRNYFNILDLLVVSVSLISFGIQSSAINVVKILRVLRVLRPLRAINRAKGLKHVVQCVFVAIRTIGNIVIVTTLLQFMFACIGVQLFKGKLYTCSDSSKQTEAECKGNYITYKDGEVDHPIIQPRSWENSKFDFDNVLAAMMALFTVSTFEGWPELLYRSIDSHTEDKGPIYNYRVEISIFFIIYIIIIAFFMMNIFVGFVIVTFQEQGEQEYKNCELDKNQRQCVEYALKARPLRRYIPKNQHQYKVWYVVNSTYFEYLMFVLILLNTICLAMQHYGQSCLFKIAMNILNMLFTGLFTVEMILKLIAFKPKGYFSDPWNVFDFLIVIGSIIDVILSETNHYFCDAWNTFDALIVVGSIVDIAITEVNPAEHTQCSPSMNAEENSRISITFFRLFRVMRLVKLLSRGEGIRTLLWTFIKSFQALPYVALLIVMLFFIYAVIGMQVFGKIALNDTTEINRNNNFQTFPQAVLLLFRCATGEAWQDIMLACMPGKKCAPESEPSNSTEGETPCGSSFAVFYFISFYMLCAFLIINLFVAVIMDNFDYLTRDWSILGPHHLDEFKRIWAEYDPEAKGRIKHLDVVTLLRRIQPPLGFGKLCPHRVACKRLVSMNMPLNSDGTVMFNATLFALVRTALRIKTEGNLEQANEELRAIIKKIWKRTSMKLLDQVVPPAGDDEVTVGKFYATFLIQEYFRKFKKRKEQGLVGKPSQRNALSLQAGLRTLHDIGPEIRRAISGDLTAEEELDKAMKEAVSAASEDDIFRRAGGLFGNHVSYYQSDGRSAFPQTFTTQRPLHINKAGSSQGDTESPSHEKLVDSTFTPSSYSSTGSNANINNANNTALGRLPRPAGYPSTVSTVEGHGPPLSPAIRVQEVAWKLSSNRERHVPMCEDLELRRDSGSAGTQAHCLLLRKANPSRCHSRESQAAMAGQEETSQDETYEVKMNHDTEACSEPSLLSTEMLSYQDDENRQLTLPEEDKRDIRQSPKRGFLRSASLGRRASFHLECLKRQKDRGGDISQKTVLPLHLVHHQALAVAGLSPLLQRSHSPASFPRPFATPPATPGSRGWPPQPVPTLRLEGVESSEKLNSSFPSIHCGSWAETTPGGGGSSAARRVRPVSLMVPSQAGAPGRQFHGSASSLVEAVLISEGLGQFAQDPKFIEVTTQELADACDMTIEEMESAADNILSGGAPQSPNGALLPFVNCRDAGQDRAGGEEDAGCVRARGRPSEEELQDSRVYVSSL
T1 sequence (Q08289 whole entry partner): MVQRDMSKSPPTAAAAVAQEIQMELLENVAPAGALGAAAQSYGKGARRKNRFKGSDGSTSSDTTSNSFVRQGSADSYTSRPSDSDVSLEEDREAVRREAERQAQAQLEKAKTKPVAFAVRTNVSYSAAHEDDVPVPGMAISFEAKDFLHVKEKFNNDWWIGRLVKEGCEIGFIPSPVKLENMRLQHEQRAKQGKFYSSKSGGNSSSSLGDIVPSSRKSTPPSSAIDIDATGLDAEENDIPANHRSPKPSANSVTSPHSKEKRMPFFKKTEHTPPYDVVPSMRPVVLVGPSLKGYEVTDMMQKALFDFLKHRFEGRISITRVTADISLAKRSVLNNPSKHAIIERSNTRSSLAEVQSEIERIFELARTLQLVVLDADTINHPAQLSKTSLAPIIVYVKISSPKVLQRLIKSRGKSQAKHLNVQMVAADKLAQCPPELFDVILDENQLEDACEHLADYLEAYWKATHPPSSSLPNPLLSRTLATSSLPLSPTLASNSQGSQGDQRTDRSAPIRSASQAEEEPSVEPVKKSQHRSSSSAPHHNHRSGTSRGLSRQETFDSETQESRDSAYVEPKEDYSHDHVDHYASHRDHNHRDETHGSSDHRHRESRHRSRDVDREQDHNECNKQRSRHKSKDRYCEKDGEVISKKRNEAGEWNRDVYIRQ
T1 sequence (P54289 25-946 partner limits assumed): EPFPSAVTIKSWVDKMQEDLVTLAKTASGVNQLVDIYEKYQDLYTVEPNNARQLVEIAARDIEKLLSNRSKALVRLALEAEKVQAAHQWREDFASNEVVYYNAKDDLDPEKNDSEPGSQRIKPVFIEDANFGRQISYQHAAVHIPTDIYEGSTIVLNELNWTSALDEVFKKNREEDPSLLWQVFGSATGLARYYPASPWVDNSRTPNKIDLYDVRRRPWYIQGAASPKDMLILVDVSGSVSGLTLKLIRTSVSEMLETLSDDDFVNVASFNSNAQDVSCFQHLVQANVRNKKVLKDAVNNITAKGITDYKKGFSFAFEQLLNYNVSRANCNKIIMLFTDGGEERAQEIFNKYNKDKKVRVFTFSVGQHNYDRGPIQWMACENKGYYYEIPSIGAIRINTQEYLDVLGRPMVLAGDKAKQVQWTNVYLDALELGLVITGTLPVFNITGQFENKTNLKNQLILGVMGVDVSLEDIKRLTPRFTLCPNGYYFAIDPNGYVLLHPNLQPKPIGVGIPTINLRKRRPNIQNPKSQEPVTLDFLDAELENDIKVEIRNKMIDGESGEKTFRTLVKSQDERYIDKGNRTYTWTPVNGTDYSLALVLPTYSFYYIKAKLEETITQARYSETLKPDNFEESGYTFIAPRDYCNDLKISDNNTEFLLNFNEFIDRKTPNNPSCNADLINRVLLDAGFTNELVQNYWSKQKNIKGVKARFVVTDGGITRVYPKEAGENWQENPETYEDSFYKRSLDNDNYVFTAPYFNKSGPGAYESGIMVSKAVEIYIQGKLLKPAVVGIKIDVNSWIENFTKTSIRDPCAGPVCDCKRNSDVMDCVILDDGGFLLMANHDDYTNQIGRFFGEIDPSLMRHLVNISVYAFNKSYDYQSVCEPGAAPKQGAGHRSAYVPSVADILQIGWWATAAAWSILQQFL
T1 sequence (P54289 947-1103 partner limits assumed): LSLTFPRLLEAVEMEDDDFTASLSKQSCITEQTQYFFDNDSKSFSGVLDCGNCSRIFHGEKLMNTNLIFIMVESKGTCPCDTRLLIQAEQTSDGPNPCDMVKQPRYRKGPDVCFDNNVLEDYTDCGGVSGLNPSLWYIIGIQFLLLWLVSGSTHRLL

## C#C[C@]1(C)[C@@H](O)[C@@H](COP(=O)(N[C@H](C)C(=O)OC(C)C)Oc2ccccc2)O[C@H]1n1ccc(=O)[nH]c1=O (stereo partly drawn) [MNI-4, isopropyl (2R)-2-[[[(2R,3R,4R,5R)-5-(2,4-dioxopyrimidin-1-yl)-4-ethynyl-3-hydroxy-4-methyl-tetrahydrofuran-2-yl]methoxy-phenoxy-phosphoryl]amino]propanoate]
[1]; [4]
  Intracellular Concentration, Prodrug: 78.7 ± 6.4 pmol/million cells
  Intracellular Concentration, Cleavage Intermediate Metabolite: BLOQ
  Intracellular Concentration, NTP Metabolite: BLOQ
[1]; [5]
  Intracellular Concentration, Prodrug: 84.8 ± 12.4 pmol/million cells
  Intracellular Concentration, Cleavage Intermediate Metabolite: BLOQ
  Intracellular Concentration, NTP Metabolite: BLOQ
[1]; 10 μM prodrug alone, 4 Hours
  Intracellular Concentration, Prodrug: 77.4 ± 6.7 pmol/million cells
  Intracellular Concentration, Cleavage Intermediate Metabolite: BLOQ
  Intracellular Concentration, NTP Metabolite: BLOQ
[1]; 10 μM prodrug alone, 30 Min
  Intracellular Concentration, Prodrug: 75.4 ± 5.1 pmol/million cells
  Intracellular Concentration, Cleavage Intermediate Metabolite: BLOQ
  Intracellular Concentration, NTP Metabolite: BLOQ
[2]
  Effect on FP rate: lack of effects
  Effect on IMP amplitude: lack of effects
[3]; n = 3 for each test, read-out: IC50 in repeat tests
  IC50: 27 to 45 µM
[3]; [6]
  IC50: ~36 µM

## C#C[C@]1(C)[C@@H](O)[C@@H](COP(=O)(N[C@@H](C)C(=O)OC(C)C)Oc2ccccc2)O[C@H]1n1ccc(=O)[nH]c1=O (stereo partly drawn) [MNI-1, isopropyl (2S)-2-[[[(2R,3R,4R,5R)-5-(2,4-dioxopyrimidin-1-yl)-4-ethynyl-3-hydroxy-4-methyl-tetrahydrofuran-2-yl]methoxy-phenoxy-phosphoryl]amino]propanoate]
[1]; [4]
  Intracellular Concentration, Prodrug: 70.5 ± 14.4 pmol/million cells
  Intracellular Concentration, NTP Metabolite: Detected but BLOQ
[1]; [5]
  Intracellular Concentration, Prodrug: 69.9 ± 5.3 pmol/million cells
  Intracellular Concentration, NTP Metabolite: BLOQ
[1]; 10 μM prodrug alone, 4 Hours
  Intracellular Concentration, Prodrug: 69.1 ± 6.8 pmol/million cells
  Intracellular Concentration, NTP Metabolite: Detected but BLOQ
[1]; 10 μM prodrug alone, 30 Min
  Intracellular Concentration, Prodrug: 75.4 ± 2.3 pmol/million cells
  Intracellular Concentration, NTP Metabolite: BLOQ
[2]
  Effect on FP rate: Concentration-dependent, steady-state effects
  Effect on IMP amplitude: Concentration-dependent, steady-state effects
[3]; [6]
  IC50: > 150 µM
[3]; HEK-293 cells overexpressing Cav1.2 channel proteins, pH 7.2, Cav1.2/HEK-293, 150 μM, compound alone, read-out: inhibition at maximal tested concentration
  inhibition at 30 min, 150 µM: 21%

Reference: paper PMC5361079 (Scientific Reports, 2017)
